{
  "source": "patent US12336981B2",
  "about": "“Compounds and compositions for the inhibition of NAMPT” (Valo Health, Inc., priority 2010, dated 2025)",
  "key": {"NAMPT": {"biological_target": "T1, NAMPT (Homo sapiens, UniProt P43490)", "T1 construct": "His tag; host or cells: E. coli", "T1 sequence (P43490 whole entry)": "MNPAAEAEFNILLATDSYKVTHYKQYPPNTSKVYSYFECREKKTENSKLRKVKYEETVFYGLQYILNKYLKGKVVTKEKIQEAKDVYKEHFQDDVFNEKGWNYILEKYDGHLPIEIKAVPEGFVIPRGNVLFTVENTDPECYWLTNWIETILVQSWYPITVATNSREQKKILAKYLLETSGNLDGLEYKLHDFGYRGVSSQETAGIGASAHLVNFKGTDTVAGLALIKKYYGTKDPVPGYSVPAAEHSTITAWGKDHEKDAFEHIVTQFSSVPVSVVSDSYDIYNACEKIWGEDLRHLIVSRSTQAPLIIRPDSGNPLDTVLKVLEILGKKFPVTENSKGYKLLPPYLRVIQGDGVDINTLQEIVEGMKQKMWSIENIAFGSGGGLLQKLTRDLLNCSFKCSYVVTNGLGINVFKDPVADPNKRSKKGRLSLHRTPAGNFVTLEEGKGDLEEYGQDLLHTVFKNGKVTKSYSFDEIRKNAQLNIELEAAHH", "experiment": "Biochemical inhibition assay: NAMPT enzymatic reaction, NMN quantified by mass spectrometry", "conditions": "read-out: Biochem IC50", "summary_of_the_method": "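Inhibition of E. coli-expressed His-tagged human NAMPT, measured as NMN formation by mass spectrometry after a 30 min room-temperature reaction containing 1 μM NAM, 100 μM PRPP and 2.5 mM ATP.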"}, "A2780 cells": {"tested_on": "A2780 cells", "experiment": "In-vitro cell proliferation assay (SRB), A2780 cells", "type": "cell-based", "conditions": "Homo sapiens, A2780, 72 h, A2780 cells, 72 hours, read-out: A2780 IC50", "summary_of_the_method": "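Read-out is SRB absorbance at 570 nm on TCA-fixed cells after 72 hours of compound treatment at 37° C. in 5% CO2. Background from a media-only plate is subtracted, and % inhibition is interpolated between two tested concentrations.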"}},
  "note": "Like-named read-outs stand apart in the source and are kept apart here.",
  "data": [
    {"smiles": "O=C(NCc1ccc(S(=O)(=O)c2cncc(F)c2)cc1)c1cc2ccncc2s1", "note": "[N-{[4-(5-fluoropyridine-3-sulfonyl)phenyl]methyl}thieno[2,3-c]pyridine-2-carboxamide]", "values": [
      {"measurement": "IC50", "setting": "NAMPT; NAMPT enzymatic assay", "result": 9.7, "unit": "nM"},
      {"measurement": "IC50", "setting": "A2780 cells; SRB", "result": 6.4, "unit": "nM"}
    ]},
    {"smiles": "O=C(NCc1ccc(S(=O)(=O)c2cc(C(F)(F)F)ccc2OCc2ccccc2)cc1)c1cnc2[nH]ncc2c1", "note": "[N-[(4-{[2-(benzyloxy)-5-(trifluoromethyl)benzene]sulfonyl}phenyl)methyl]-1H-pyrazolo[3,4-b]pyridine-5-carboxamide]", "values": [
      {"measurement": "IC50", "setting": "NAMPT; NAMPT enzymatic assay", "result": "100 to 1000", "unit": "nM"},
      {"measurement": "IC50", "setting": "A2780 cells; SRB", "result": "100 to 1000", "unit": "nM"}
    ]},
    {"smiles": "CC(C)COc1ccc(S(=O)(=O)c2ccc(CNC(=O)c3cnc4[nH]ncc4c3)cc2)cc1", "note": "[N-[(4-{[4-(2-methylpropoxy)benzene]sulfonyl}phenyl)methyl]-1H-pyrazolo[3,4-b]pyridine-5-carboxamide]", "values": [
      {"measurement": "IC50", "setting": "NAMPT; NAMPT enzymatic assay", "result": 26.3, "unit": "nM"},
      {"measurement": "IC50", "setting": "A2780 cells; SRB", "result": 16.2, "unit": "nM"}
    ]},
    {"smiles": "COc1ccc(S(=O)(=O)c2ccc(CNC(=O)c3cnc4[nH]ncc4c3)cc2)c(OC)c1", "values": [
      {"measurement": "IC50", "setting": "NAMPT; NAMPT enzymatic reaction", "result": 174, "unit": "nM"},
      {"measurement": "IC50", "setting": "A2780 cells; SRB", "result": 44.7, "unit": "nM"}
    ]},
    {"smiles": "CCCOc1ccc(S(=O)(=O)c2ccc(CNC(=O)c3cnc4nccn4c3)cc2)cc1", "values": [
      {"measurement": "IC50", "setting": "NAMPT; NAMPT enzymatic reaction", "result": 2.2, "unit": "nM"},
      {"measurement": "IC50", "setting": "A2780 cells; SRB", "result": 6.1, "unit": "nM"}
    ]},
    {"smiles": "O=C(NCc1ccc(S(=O)(=O)c2cc(F)ccc2CO)cc1)c1cc2cnccc2[nH]1", "values": [
      {"measurement": "IC50", "setting": "NAMPT; NAMPT enzymatic assay", "result": 16.9, "unit": "nM"},
      {"measurement": "IC50", "setting": "A2780 cells; SRB", "result": 67.5, "unit": "nM"}
    ]},
    {"smiles": "O=C(NCc1ccc(S(=O)(=O)c2cc(F)ccc2Cl)cc1)c1cc2cnccc2[nH]1", "values": [
      {"measurement": "IC50", "setting": "NAMPT; NAMPT enzymatic reaction", "result": 28.1, "unit": "nM"},
      {"measurement": "IC50", "setting": "A2780 cells; SRB", "result": 12.1, "unit": "nM"}
    ]},
    {"smiles": "O=C(NCc1ccc(S(=O)(=O)c2cncc(Cl)c2)cc1)c1cc2cnccc2[nH]1", "note": "[N-{[4-(5-chloropyridine-3-sulfonyl)phenyl]methyl}-1H-pyrrolo[3,2-c]pyridine-2-carboxamide]", "values": [
      {"measurement": "IC50", "setting": "NAMPT; NAMPT enzymatic assay", "result": 20, "unit": "nM"},
      {"measurement": "IC50", "setting": "A2780 cells; SRB", "result": 3.6, "unit": "nM"}
    ]},
    {"smiles": "COc1cc(C(F)(F)F)ccc1S(=O)(=O)c1ccc(CNC(=O)c2ccc3nccn3c2)cc1", "note": "[N-[(4-{[2-methoxy-4-(trifluoromethyl)benzene]sulfonyl}phenyl)methyl]imidazo[1,2-a]pyridine-6-carboxamide]", "values": [
      {"measurement": "IC50", "setting": "NAMPT; NAMPT enzymatic assay", "result": 26.4, "unit": "nM"},
      {"measurement": "IC50", "setting": "A2780 cells; SRB", "result": 9.84, "unit": "nM"}
    ]},
    {"smiles": "O=C(NCc1ccc(S(=O)(=O)c2csc(-c3cccc(F)c3)n2)cc1)c1ccc2nccn2c1", "note": "[N-({4-[2-(3-fluorophenyl)-1,3-thiazole-4-sulfonyl]phenyl}methyl)imidazo[1,2-a]pyridine-6-carboxamide]", "values": [
      {"measurement": "IC50", "setting": "NAMPT; NAMPT enzymatic assay", "result": 22.9, "unit": "nM"},
      {"measurement": "IC50", "setting": "A2780 cells; SRB", "result": 12.8, "unit": "nM"}
    ]},
    {"smiles": "COc1c(C)cc(S(=O)(=O)c2ccc(CNC(=O)c3ccc4nccn4c3)cc2)cc1C", "values": [
      {"measurement": "IC50", "setting": "NAMPT; NAMPT enzymatic reaction", "result": 14.6, "unit": "nM"},
      {"measurement": "IC50", "setting": "A2780 cells; SRB", "result": 1.4, "unit": "nM"}
    ]},
    {"smiles": "O=C(NCc1ccc(S(=O)(=O)c2cccc3c2OCC3)cc1)c1cc2ccncc2s1", "note": "[N-{[4-(2,3-dihydro-1-benzofuran-7-sulfonyl)phenyl]methyl}thieno[2,3-c]pyridine-2-carboxamide]", "values": [
      {"measurement": "IC50", "setting": "NAMPT; NAMPT enzymatic assay", "result": 2.2, "unit": "nM"},
      {"measurement": "IC50", "setting": "A2780 cells; SRB", "result": 3, "unit": "nM"}
    ]},
    {"smiles": "COc1cc(S(=O)(=O)c2ccc(CNC(=O)c3ccc4nccn4c3)cc2)ccc1F", "values": [
      {"measurement": "IC50", "setting": "NAMPT; NAMPT enzymatic reaction", "result": 19.7, "unit": "nM"},
      {"measurement": "IC50", "setting": "A2780 cells; SRB", "result": 6.7, "unit": "nM"}
    ]},
    {"smiles": "CC(C)n1cc(S(=O)(=O)c2ccc(CNC(=O)c3ccc4nccn4c3)cc2)cn1", "note": "[N-({4-[1-(propan-2-yl)-1H-pyrazole-4-sulfonyl]phenyl}methyl)imidazo[1,2-a]pyridine-6-carboxamide]", "values": [
      {"measurement": "IC50", "setting": "NAMPT; NAMPT enzymatic assay", "result": 8, "unit": "nM"},
      {"measurement": "IC50", "setting": "A2780 cells; SRB", "result": 2.7, "unit": "nM"}
    ]},
    {"smiles": "Cn1cc(S(=O)(=O)c2ccc(CNC(=O)c3cnc4nccn4c3)cc2)cn1", "note": "[N-{[4-(1-methyl-1H-pyrazole-4-sulfonyl)phenyl]methyl}imidazo[1,2-a]pyrimidine-6-carboxamide]", "values": [
      {"measurement": "IC50", "setting": "NAMPT; NAMPT enzymatic assay", "result": 8.2, "unit": "nM"},
      {"measurement": "IC50", "setting": "A2780 cells; SRB", "result": "100 to 1000", "unit": "nM"}
    ]},
    {"smiles": "COc1c(Cl)ccc(S(=O)(=O)c2ccc(CNC(=O)c3cc4ccncc4o3)cc2)c1Cl", "values": [
      {"measurement": "IC50", "setting": "NAMPT; NAMPT enzymatic reaction", "result": 17.7, "unit": "nM"},
      {"measurement": "IC50", "setting": "A2780 cells; SRB", "result": 16.2, "unit": "nM"}
    ]},
    {"smiles": "O=C(NCc1ccc(S(=O)(=O)c2ccc(Cl)c(Cl)c2)cc1)c1cnc2nccn2c1", "values": [
      {"measurement": "IC50", "setting": "NAMPT; NAMPT enzymatic reaction", "result": 1.5, "unit": "nM"},
      {"measurement": "IC50", "setting": "A2780 cells; SRB", "result": 1.7, "unit": "nM"}
    ]},
    {"smiles": "O=C(Nc1ccc(S(=O)(=O)c2ccccc2)cc1)c1cccnc1", "note": "[N-[4-(benzenesulfonyl)phenyl]pyridine-3-carboxamide]", "values": [
      {"measurement": "IC50", "setting": "NAMPT; NAMPT enzymatic reaction", "result": 12000, "unit": "nM"},
      {"measurement": "IC50", "setting": "A2780 cells; SRB assay", "result": "> 30000", "unit": "nM"}
    ]},
    {"smiles": "CCCCOc1ccc(S(=O)(=O)c2ccc(CNC(=O)c3cc4cnccc4[nH]3)cc2)cc1Cl", "values": [
      {"measurement": "IC50", "setting": "NAMPT; NAMPT enzymatic reaction", "result": 17.8, "unit": "nM"},
      {"measurement": "IC50", "setting": "A2780 cells; SRB", "result": 12.4, "unit": "nM"}
    ]}
  ]
}
